Assay results: patent publication US9340538B2, “Dihydropyrimidine compounds and their application in pharmaceuticals” (SUNSHINE LAKE PHARMA CO., LTD., priority 2013, dated 2016)

test system: HBV; experiment: In-vitro anti-HBV activity in stable HBV-producing cell line (HepG2.2.15), HBV DNA in culture fluid by qPCR; type: cell-based; conditions: Hepatitis B virus, 168 h; 500 nmol final concentration, HepG2.2.15 cells, HBV DNA in culture media on day 7 post seeding, vs DMSO control; read-out: HBV (% Inh.) (500 nmol)
Experimental: In-Vitro Anti-HBV Activity of Compounds in Stable HBV-Producing Cell Line (HepG2.2.15)
HBV DNA contents in cell culture fluid were detected by the qPCR-based assay and percents of HBV inhibition by compounds (% Inh) were calculated. Specific procedures are as follows:
HepG2.2.15 cells were seeded into each well of 96-well plates, 40,000 cells per well. Cells were treated with cell culture medium containing compounds 24 hours after cell seeding. Each compound to detected percent inhibition was in duplicate and the final concentration of each compound was 500 nmol in each well. The compound-containing mediums were refreshed on day 4 post cell seeding. Culture media were collected from the HepG2.2.15 plates on day 7 post cell seeding followed by HBV DNA extraction.
HBV DNA extraction: using QIAamp 96 DNA Blood Kit (QIAGEN 51161).
PCR for quantification: PCR mix was prepared according to PCR system; PCR mix was dispensed to 384-well optical reaction plates (special for quantification); The standard diluted proportionally was added; The sample was added; The plates were sealed with optical adhesive film; PCR system was performed according to programs.
Percent of HBV inhibition of DNA replication by compound was calculated using the following equation: % Inh.=[1-HBV DNA quantity of sample/HBV DNA quantity of DMSO control]*100. II. Assay Results

SMILES	inhibition at 0.5 µM
CCOC(=O)C1=C(CN2CCOCC2C(N)=O)NC(c2nccs2)=NC1c1ccc(F)cc1Br (centres unmarked) [Example 25, Ethyl 4-(2-bromo-4-fluorophenyl)-6-((3-carbamoylmorpholino)methyl)-2-(thiazol-2-yl)-1,4-dihydropyrimidine-5-carboxylate]	91.9%
CCOC(=O)C1=C(CN2CCOC[C@H]2C(=O)O)NC(c2nc(CC(=O)OC)cs2)=NC1c1ccc(F)cc1Br (stereo partly drawn) [Example 61, (3S)-4-((6-(2-bromo-4-fluorophenyl)-5-(ethoxycarbonyl)-2-(4-(2-methoxy-2-oxoethyl)thiazol-2-yl)-3,6-dihydropyrimidin-4-yl)methyl)morpholine-3-carboxylic acid]	91.1%
CCOC(=O)C1=C(CN2CCOCC2C(=O)OC(C)C)NC(c2nccs2)=NC1c1ccc(F)cc1Br (centres unmarked) [Example 77, Isopropyl 4-((6-(2-bromo-4-fluorophenyl)-5-(ethoxycarbonyl)-2-(thiazol-2-yl)-3,6-dihydropyrimidin-4-yl)methyl)morpholine-3-carboxylate]	91.9%
CCOC(=O)C1=C(CN2CCOCC2C(=O)O)NC(c2nnc(C)s2)=NC1c1ccc(F)cc1Br (centres unmarked) [Example 69, 4-((6-(2-bromo-4-fluorophenyl)-5-(ethoxycarbonyl)-2-(5-methyl-1,3,4-thiadiazol-2-yl)-3,6-dihydropyrimidin-4-yl)methyl)morpholine-3-carboxylic acid]	36.5%
CCOC(=O)C1=C(CN2CCOCC2C(=O)O)NC(c2nc(C(F)(F)F)cs2)=NC1c1ccc(Cl)cc1Cl (centres unmarked) [Example 119, 4-((6-(2,4-dichlorophenyl)-5-(ethoxycarbonyl)-2-(4-(trifluoromethyl)thiazol-2-yl)-3,6-dihydropyrimidin-4-yl)methyl)morpholine-3-carboxylic acid]	94%
COC(=O)C1=C(CN2CCOC(C(=O)O)C2)NC(c2nccs2)=NC1c1ccc(F)cc1Br (centres unmarked) [Example 12, 4-((6-(2-bromo-4-fluorophenyl)-5-(methoxycarbonyl)-2-(thiazol-2-yl)-3,6-dihydropyrimidin-4-yl)methyl)morpholine-2-carboxylic acid]	53.8%
CCOC(=O)C1=C(CN2CCOC[C@H]2COC(=O)[C@@H](N)C(C)C)NC(c2nccs2)=NC1c1ccc(F)cc1Br (stereo partly drawn) [Example 49, Ethyl 6-(((S)-3-((((S)-2-amino-3-methylbutanoyl)oxy)methyl)morpholino)methyl)-4-(2-bromo-4-fluorophenyl)-2-(thiazol-2-yl)-1,4-dihydropyrimidine-5-carboxylate]	96.2%
CCOC(=O)C1=C(CN2CCOCC2C(=O)O)NC(c2ncn(C)n2)=NC1c1ccc(F)cc1Br (centres unmarked) [Example 123, 4-((6-(2-bromo-4-fluorophenyl)-5-(ethoxycarbonyl)-2-(1-methyl-1H-1,2,4-triazol-3-yl)-3,6-dihydropyrimidin-4-yl)methyl)morpholine-3-carboxylic acid]	37.5%
CCOC(=O)C1=C(CN2CCOCC2C(=O)O)NC(c2nccs2)=NC1c1ccc(F)cc1Cl (centres unmarked) [Example 4, 4-((6-(2-chloro-4-fluorophenyl)-5-(ethoxycarbonyl)-2-(thiazol-2-yl)-3,6-dihydropyrimidin-4-yl)methyl)morpholine-3-carboxylic acid]	90%
CCOC(=O)C1=C(CN2CCO[C@H](COC(=O)C(N)C(C)C)C2)NC(c2nccs2)=NC1c1ccc(F)cc1Br (stereo in doubt) [Example 126, Ethyl 6-(((S)-2-((((S)-2-amino-3-methylbutanoyl)oxy)methyl)morpholino)methyl)-4-(2-bromo-4-fluorophenyl)-2-(thiazol-2-yl)-1,4-dihydropyrimidine-5-carboxylate]	94.7%
CCOC(=O)C1=C(CN2CCOCC2C(=O)NC(C)C)NC(c2nccs2)=NC1c1ccc(Cl)cc1Cl (centres unmarked) [Example 81, Ethyl 4-(2,4-dichlorophenyl)-6-((3-(isopropylcarbamoyl)morpholino)methyl)-2-(thiazol-2-yl)-1,4-dihydropyrimidine-5-carboxylate]	91.9%
CCOC(=O)C1=C(CN2CCOC(C(=O)O)C2)NC(c2nccs2)=NC1c1ccc(F)cc1Cl (centres unmarked) [Example 10, 4-((6-(2-chloro-4-fluorophenyl)-5-(ethoxycarbonyl)-2-(thiazol-2-yl)-3,6-dihydropyrimidin-4-yl)methyl)morpholine-2-carboxylic acid]	89.7%
COC(=O)C1=C(CN2CCOCC2C(=O)O)NC(c2nccs2)=NC1c1ccc(F)cc1Br (centres unmarked) [Example 6, 4-((6-(2-bromo-4-fluorophenyl)-5-(methoxycarbonyl)-2-(thiazol-2-yl)-3,6-dihydropyrimidin-4-yl)methyl)morpholine-3-carboxylic acid]	99.9%
CCOC(=O)C1=C(CN2CCOCC2C(=O)O)NC(c2nccn2C)=NC1c1ccc(F)cc1Br (centres unmarked) [Example 125, 4-((6-(2-bromo-4-fluorophenyl)-5-(ethoxycarbonyl)-2-(1-methyl-1H-imidazol-2-yl)-3,6-dihydropyrimidin-4-yl)methyl)morpholine-3-carboxylic acid]	92.5%
CCOC(=O)C1=C(CN2CCOCC2C(N)=O)NC(c2nccs2)=NC1c1ccc(F)cc1Cl (centres unmarked) [Example 26, Ethyl 6-((3-carbamoylmorpholino)methyl)-4-(2-chloro-4-fluorophenyl)-2-(thiazol-2-yl)-1,4-dihydropyrimidine-5-carboxylate]	96%
CCOC(=O)C1=C(CN2CCOC(CCCO)C2)NC(c2nccs2)=NC1c1ccc(F)cc1Br (centres unmarked) [Example 133, Ethyl 4-(2-bromo-4-fluorophenyl)-6-((2-(3-hydroxypropyl)morpholino)methyl)-2-(thiazol-2-yl)-1,4-dihydropyrimidine-5-carboxylate]	92.6%
CCOC(=O)C1=C(CN2CCOC(C(=O)O)C2)NC(c2nccs2)=NC1c1ccc(Cl)cc1Cl (centres unmarked) [Example 11, 4-((6-(2,4-dichlorophenyl)-5-(ethoxycarbonyl)-2-(thiazol-2-yl)-3,6-dihydropyrimidin-4-yl)methyl)morpholine-2-carboxylic acid]	95.6%
CCOC(=O)C1=C(CN2CCOCC2C(=O)O)NC(c2nccs2)=NC1c1ccccc1[N+](=O)[O-] (centres unmarked) [Example 2, 4-((5-(ethoxycarbonyl)-6-(2-nitrophenyl)-2-(thiazol-2-yl)-3,6-dihydropyrimidin-4-yl)methyl)morpholine-3-carboxylic acid]	31.3%
CCOC(=O)C1=C(CN2CCOCC2C(=O)O)NC(c2ncc(F)s2)=NC1c1ccc(F)cc1Cl (centres unmarked) [Example 121, 4-((6-(2-chloro-4-fluorophenyl)-5-(ethoxycarbonyl)-2-(5-fluorothiazol-2-yl)-3,6-dihydropyrimidin-4-yl)methyl)morpholine-3-carboxylic acid]	48.5%
CCOC(=O)C1=C(CN2CCOCC2C(=O)O)NC(c2nncs2)=NC1c1ccc(F)cc1Br (centres unmarked) [Example 71, 4-((6-(2-bromo-4-fluorophenyl)-5-(ethoxycarbonyl)-2-(1,3,4-thiadiazol-2-yl)-3,6-dihydropyrimidin-4-yl)methyl)morpholine-3-carboxylic acid]	43.4%
CCOC(=O)C1=C(CN2CCOC[C@H]2C(=O)NCCO)NC(c2nccs2)=NC1c1ccc(F)cc1Br (stereo partly drawn) [Example 54, Ethyl 4-(2-bromo-4-fluorophenyl)-6-(((S)-3-((2-hydroxyethyl)carbamoyl)morpholino)methyl)-2-(thiazol-2-yl)-1,4-dihydropyrimidine-5-carboxylate]	91%
CCOC(=O)C1=C(CN2CCOCC2C(=O)OCOC(=O)OC(C)C)NC(c2nccs2)=NC1c1ccc(Cl)cc1Cl (centres unmarked) [Example 80, ((Isopropoxycarbonyl)oxy)methyl 4-((6-(2,4-dichlorophenyl)-5-(ethoxycarbonyl)-2-(thiazol-2-yl)-3,6-dihydropyrimidin-4-yl)methyl)morpholine-3-carboxylate]	91.9%
CCOC(=O)C1=C(CN2CCOCC2C(=O)NC(C)C)NC(c2nccs2)=NC1c1ccc(F)cc1Br (centres unmarked) [Example 82, Ethyl 4-(2-bromo-4-fluorophenyl)-6-((3-(isopropylcarbamoyl)morpholino)methyl)-2-(thiazol-2-yl)-1,4-dihydropyrimidine-5-carboxylate]	96%
CCOC(=O)C1=C(CN2CCOCC2C(=O)O)NC(c2nccs2)=NC1c1ccccc1C(F)(F)F (centres unmarked) [Example 1, 4-((5-(ethoxycarbonyl)-2-(thiazol-2-yl)-6-(2-(trifluoromethyl)phenyl)-3,6-dihydropyrimidin-4-yl)methyl)morpholine-3-carboxylic acid]	75.8%

same assay, conditions: Hepatitis B virus, HepG2.2.15, 168 h, read-out: HBV (% Inh.) (500 nmol)

SMILES	inhibition at 0.5 µM
CCOC(=O)C1=C(CN2CCOCC2C(=O)O)NC(c2nccs2)=NC1c1ccc(Cl)cc1Cl (centres unmarked) [Example 5, 4-((6-(2,4-dichlorophenyl)-5-(ethoxycarbonyl)-2-(thiazol-2-yl)-3,6-dihydropyrimidin-4-yl)methyl)morpholine-3-carboxylic acid]	95%
CCOC(=O)C1=C(CN2CCO[C@H](C)[C@H]2C(=O)O)NC(c2nccs2)=NC1c1ccc(F)cc1Br (stereo partly drawn) [Example 34, (2R,3S)-4-((6-(2-bromo-4-fluorophenyl)-5-(ethoxycarbonyl)-2-(thiazol-2-yl)-3,6-dihydropyrimidin-4-yl)methyl)-2-methylmorpholine-3-carboxylic acid]	94.3%
